pIC50: −log10 of the molar value.
Molecular target: JAK1 (Homo sapiens (Human), UniProt P23458)
Test: Analysis of JAK1 activity inhibition ability (ADP-Glo Kinase Assay)
Type: biochemical
Conditions: JAK1 enzyme, ADP-Glo luminescence, ATP 250 uM, IRS-itide substrate, 30° C. 40 minutes; read-out: IC50
Procedure, shortened: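 JAK1 enzyme, IRS-itide substrate (40 ng/mL) and 250 uM ATP, both as prepared in kinase buffer (Tris-HCl pH 7.5, MgCl2, BSA, DTT), reacted with compound 40 min at 30 °C. ADP formed was detected by ADP-Glo luminescence; IC50 is the concentration giving 50% inhibition versus control.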

JAK1, sequence (P23458 whole entry): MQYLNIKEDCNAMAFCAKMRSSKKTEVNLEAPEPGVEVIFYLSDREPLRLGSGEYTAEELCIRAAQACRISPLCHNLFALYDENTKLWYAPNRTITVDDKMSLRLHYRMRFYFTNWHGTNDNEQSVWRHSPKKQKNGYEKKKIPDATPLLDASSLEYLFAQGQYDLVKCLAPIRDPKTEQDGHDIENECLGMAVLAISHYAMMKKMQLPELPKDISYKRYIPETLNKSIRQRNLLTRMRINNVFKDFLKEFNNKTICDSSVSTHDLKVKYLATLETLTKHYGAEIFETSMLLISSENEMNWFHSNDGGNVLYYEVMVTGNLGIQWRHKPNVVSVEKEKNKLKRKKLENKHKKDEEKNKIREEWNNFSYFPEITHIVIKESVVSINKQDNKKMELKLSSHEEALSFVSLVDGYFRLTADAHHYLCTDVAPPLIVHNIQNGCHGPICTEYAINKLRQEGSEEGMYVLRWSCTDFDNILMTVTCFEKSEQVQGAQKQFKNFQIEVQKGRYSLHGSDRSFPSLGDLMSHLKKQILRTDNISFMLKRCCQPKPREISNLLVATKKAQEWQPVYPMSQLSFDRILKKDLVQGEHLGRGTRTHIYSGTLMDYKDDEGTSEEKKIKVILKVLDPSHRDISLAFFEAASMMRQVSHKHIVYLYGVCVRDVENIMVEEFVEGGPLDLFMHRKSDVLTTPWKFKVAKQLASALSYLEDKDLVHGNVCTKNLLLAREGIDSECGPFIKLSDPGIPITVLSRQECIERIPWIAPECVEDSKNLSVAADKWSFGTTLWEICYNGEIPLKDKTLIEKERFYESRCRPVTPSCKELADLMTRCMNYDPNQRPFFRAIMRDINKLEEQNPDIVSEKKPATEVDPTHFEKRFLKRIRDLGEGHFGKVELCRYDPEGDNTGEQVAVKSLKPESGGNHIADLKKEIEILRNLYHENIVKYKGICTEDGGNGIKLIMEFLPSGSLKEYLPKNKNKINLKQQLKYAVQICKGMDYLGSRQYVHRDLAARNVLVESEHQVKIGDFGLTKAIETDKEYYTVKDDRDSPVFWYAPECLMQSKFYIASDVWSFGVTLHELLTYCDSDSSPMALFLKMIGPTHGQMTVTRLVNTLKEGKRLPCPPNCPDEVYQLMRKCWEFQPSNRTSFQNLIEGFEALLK

Compound | pIC50
O=C(NCC(F)(F)F)Nc1ccc(-c2cc(NC(=O)C3CC3)nc3[nH]ccc23)cc1 [Example 435, N-(4-(4-(3-(2,2,2-trifluoroethyl)ureido)phenyl)-1H-pyrrolo[2,3-b]pyridin-6-yl)cyclopropanecarboxamide] | 6.70 to 7.70
C[C@@H]1CN(C(=O)C(C#N)=Cc2cccs2)CC=C1c1cc(NC(=O)C2CC2)nc2[nH]ccc12 [Example 403, (S)—N-(4-(1-(2-cyano-3-(thiophen-2-yl)acryloyl)-3-methyl-1,2,3,6-tetrahydropyridin-4-yl)-1H-pyrrolo[2,3-b]pyridin-6-yl)cyclopropanecarboxamide] | 6.70 to 7.70
N#CCCNC(=O)C1CC=C(c2cc(NC(=O)C3CC3)nc3[nH]ccc23)CC1 (stereo not drawn) [Example 532, N-(2-cyanoethyl)-4-(6-(cyclopropanecarboxamido)-1H-pyrrolo[2,3-b]pyridin-4-yl)cyclohex-3-ene-1-carboxamide] | 6.70 to 7.70
CCc1cc(-c2cc(NC(=O)C3CC3)nc3[nH]ccc23)ccc1NS(=O)(=O)C1CCC1 [Example 128, N-(4-(4-(cyclobutanesulfonamido)-3-ethylphenyl)-1H-pyrrolo[2,3-b]pyridin-6-yl)cyclopropanecarboxamide] | > 7.70
N#CC1(CS(=O)(=O)N2CC=C(c3cc(NC(=O)C4CC4)nc4[nH]ccc34)CC2)CC1 [Example 172, N-(4-(1-(((1-cyanocyclopropyl)methyl)sulfonyl)-1,2,3,6-tetrahydropyridin-4-yl)-1H-pyrrolo[2,3-b]pyridin-6-yl)cyclopropanecarboxamide] | 6.70 to 7.70
CCCNC(=S)Nc1ccc(-c2nc(NC(=O)C3CC3)nc3[nH]ccc23)cc1 [Example 467, N-(4-(4-(3-propylthioureido)phenyl)-7H-pyrrolo[2,3-d]pyrimidin-2-yl)cyclopropanecarboxamide] | 6.70 to 7.70
Cc1cc(NS(=O)(=O)CC2(C#N)CC2)ccc1-c1cc(NC(=O)C2CC2)nc2[nH]ccc12 [Example 102, N-(4-(4-(((1-cyanocyclopropyl)methyl)sulfonamido)-2-methylphenyl)-1H-pyrrolo[2,3-b]pyridin-6-yl)cyclopropanecarboxamide] | > 7.70
O=C(Nc1cc(-c2ccc(CC(=O)N3CCC(F)(F)C3)cc2)c2cc[nH]c2n1)C1CC1 [Example 569, N-(4-(4-(2-(3,3-difluoropyrrolidin-1-yl)-2-oxoethyl)phenyl)-1H-pyrrolo[2,3-b]pyridin-6-yl)cyclopropanecarboxamide] | > 7.70
CCCS(=O)(=O)Nc1ccc(-c2cc(NC(=O)C3CC3)nc3[nH]ccc23)cc1C [Example 65, N-(4-(3-methyl-4-(propylsulfonamido)phenyl)-1H-pyrrolo[2,3-b]pyridin-6-yl)cyclopropanecarboxamide] | > 7.70
O=C(Nc1cc(C2=CCN(C(=O)C3CC3F)CC2)c2cc[nH]c2n1)C1CC1 (stereo not drawn) [Example 274, N-(4-(1-(2-fluorocyclopropane-1-carbonyl)-1,2,3,6-tetrahydropyridin-4-yl)-1H-pyrrolo[2,3-b]pyridin-6-yl)cyclopropanecarboxamide] | > 7.70
Cc1cc(NC(=O)NCC(F)(F)F)ccc1-c1cc(NC(=O)C2CC2)nc2[nH]ccc12 [Example 436, N-(4-(2-methyl-4-(3-(2,2,2-trifluoroethyl)ureido)phenyl)-1H-pyrrolo[2,3-b]pyridin-6-yl)cyclopropanecarboxamide] | 6.70 to 7.70
N#CCC(=O)N1CC=C(c2cc(NC(=O)C3CC3)nc3[nH]ccc23)C1 [Example 426, N-(4-(1-(2-cyanoacetyl)-2,5-dihydro-1H-pyrrol-3-yl)-1H-pyrrolo[2,3-b]pyridin-6-yl)cyclopropanecarboxamide] | < 6.70
N#CC1(CS(=O)(=O)Nc2ccc(-c3cc(NC(=O)C4CC4)nc4[nH]ccc34)cc2F)CC1 [Example 85, N-(4-(4-(((1-cyanocyclopropyl)methyl)sulfonamido)-3-fluorophenyl)-1H-pyrrolo[2,3-b]pyridin-6-yl)cyclopropanecarboxamide] | > 7.70
N#CCC(=O)N1C2CCC1CN(c1nc(Nc3ccccc3)nc3[nH]ccc13)C2 [Example 721, 3-oxo-3-(3-(2-(phenylamino)-7H-pyrrolo[2,3-d]pyrimidin-4-yl)-3,8-diazabicyclo[3.2.1]octan-8-yl)propanenitrile] | 6.70 to 7.70
O=C(Nc1cc(-c2ccc(NS(=O)(=O)C3CCS(=O)(=O)CC3)cc2)c2cc[nH]c2n1)C1CC1 [Example 9, N-(4-(4-((1,1-dioxidotetrahydro-2H-thiopyran)-4-sulfonamido)phenyl)-1H-pyrrolo[2,3-b]pyridin-6-yl)cyclopropanecarboxamide] | > 7.70
O=C(Nc1nc(-c2ccc(NS(=O)(=O)CCCC(F)(F)F)cc2)c2nc[nH]c2n1)C1CC1 [Example 211, N-(6-(4-((4,4,4-trifluorobutyl)sulfonamido)phenyl)-9H-purin-2-yl)cyclopropanecarboxamide] | < 6.70
CCS(=O)(=O)Nc1ccc(-c2cc(NC(=O)C3CC3)nc3[nH]ccc23)cc1C(F)(F)F [Example 98, N-(4-(4-(ethylsulfonamido)-3-(trifluoromethyl)phenyl)-1H-pyrrolo[2,3-b]pyridin-6-yl)cyclopropanecarboxamide] | 6.70 to 7.70

Compound | pIC50
N#CCNC(=O)c1ccc(-c2cc(NC(=O)C3CC3)nc3[nH]ccc23)cc1 [Example 523, N-(cyanomethyl)-4-(6-(cyclopropanecarboxamido)-1H-pyrrolo[2,3-b]pyridin-4-yl)benzamide] | > 7.70
CC(C)(C)CS(=O)(=O)Nc1ccc(-c2cc(NC(=O)C3CC3)nc3[nH]ccc23)cc1F [Example 79, N-(4-(4-((2,2-dimethylpropyl)sulfonamido)-3-fluorophenyl)-1H-pyrrolo[2,3-b]pyridin-6-yl)cyclopropanecarboxamide] | > 7.70
N#CCNC(=O)c1ccc(-c2cc(NC(=O)C3CC3)nc3[nH]ccc23)cc1F [Example 528, N-(cyanomethyl)-4-(6-(cyclopropanecarboxamido)-1H-pyrrolo[2,3-b]pyridin-4-yl)-2-fluorobenzamide] | 6.70 to 7.70
O=C(Nc1cc(C2=CCN(C(=O)c3cscn3)CC2)c2cc[nH]c2n1)C1CC1 [Example 291, N-(4-(1-(thiazole-4-carbonyl)-1,2,3,6-tetrahydropyridin-4-yl)-1H-pyrrolo[2,3-b]pyridin-6-yl)cyclopropanecarboxamide] | < 6.70
COc1ccc(C(=O)N2CC=C(c3cc(NC(=O)C4CC4)nc4[nH]ccc34)C(C)C2)cc1OC (stereo not drawn) [Example 329, N-(4-(1-(3,4-dimethoxybenzoyl)-3-methyl-1,2,3,6-tetrahydropyridin-4-yl)-1H-pyrrolo[2,3-b]pyridin-6-yl)cyclopropanecarboxamide] | 6.70 to 7.70
N#CCC(=O)N1[C@@H]2CC[C@H]1C=C(c1cc(NC(=O)C3CC3)nc3[nH]ccc13)C2 [Example 262, N-(4-((1S,5R)-8-(2-cyanoacetyl)-8-azabicyclo[3.2.1]oct-2-en-3-yl)-1H-pyrrolo[2,3-b]pyridin-6-yl)cyclopropanecarboxamide] | 6.70 to 7.70
O=C(Cc1ccc(-c2cc(NC(=O)C3CC3)nc3[nH]ccc23)cc1)NCC(F)(F)F [Example 537, N-(4-(4-(2-oxo-2-((2,2,2-trifluoroethyl)amino)ethyl)phenyl)-1H-pyrrolo[2,3-b]pyridin-6-yl)cyclopropanecarboxamide] | 6.70 to 7.70
O=C(Nc1cc(-c2ccc(NC3CCN(C(=O)Nc4ccc(F)cc4F)CC3)c(F)c2)c2cc[nH]c2n1)C1CC1 [Example 501, 4-((4-(6-(cyclopropanecarboxamido)-1H-pyrrolo[2,3-b]pyridin-4-yl)-2-fluorophenyl)amino)-N-(2,4-difluorophenyl)piperidine-1-carboxamide] | 6.70 to 7.70
N#CCCn1ccc(-c2cc(NC(=O)C3CC3)nc3[nH]ccc23)c1 [Example 483, N-(4-(1-(2-cyanoethyl)-1H-pyrrol-3-yl)-1H-pyrrolo[2,3-b]pyridin-6-yl)cyclopropanecarboxamide] | > 7.70
CN(c1ccc(-c2nc(NC(=O)C3CC3)nc3[nH]ccc23)cc1)S(=O)(=O)c1ccc(F)c(F)c1 [Example 193, N-(4-(4-((3,4-difluoro-N-methylphenyl)sulfonamido)phenyl)-7H-pyrrolo[2,3-d]pyrimidin-2-yl)cyclopropanecarboxamide] | < 6.70
CC1CN(C(=O)c2ccc3cc[nH]c3c2)CC=C1c1cc(NC(=O)C2CC2)nc2[nH]ccc12 (stereo not drawn) [Example 327, N-(4-(1-(1H-indole-6-carbonyl)-3-methyl-1,2,3,6-tetrahydropyridin-4-yl)-1H-pyrrolo[2,3-b]pyridin-6-yl)cyclopropanecarboxamide] | 6.70 to 7.70
COc1ccc(C(=O)N2CC=C(c3cc(NC(=O)C4CC4)nc4[nH]ccc34)C(C)C2)cn1 (stereo not drawn) [Example 380, N-(4-(1-(6-methoxynicotinoyl)-3-methyl-1,2,3,6-tetrahydropyridin-4-yl)-1H-pyrrolo[2,3-b]pyridin-6-yl)cyclopropanecarboxamide] | 6.70 to 7.70
C[C@@H]1CN(C(=O)c2ccnc(Cl)c2)CC=C1c1cc(NC(=O)C2CC2)nc2[nH]ccc12 [Example 399, (S)—N-(4-(1-(2-chloroisonicotinoyl)-3-methyl-1,2,3,6-tetrahydropyridin-4-yl)-1H-pyrrolo[2,3-b]pyridin-6-yl)cyclopropanecarboxamide] | > 7.70
C=CC(=O)N1CC=C(c2cc(NC(=O)C3CC3)nc3[nH]ccc23)CC1 [Example 266, N-(4-(1-acryloyl-1,2,3,6-tetrahydropyridin-4-yl)-1H-pyrrolo[2,3-b]pyridin-6-yl)cyclopropanecarboxamide] | 6.70 to 7.70
O=C(Nc1cc(C2CC3CCC(C2)N3C(=O)C2CC2)c2cc[nH]c2n1)C1CC1 (stereo not drawn) [Example 650, N-(4-(8-(cyclopropanecarbonyl)-8-azabicyclo[3.2.1]octan-3-yl)-1H-pyrrolo[2,3-b]pyridin-6-yl)cyclopropanecarboxamide] | < 6.70
CCS(=O)(=O)Nc1ccc(-c2cc(NC(=O)C3CC3)nc3[nH]ccc23)cc1C#N [Example 59, N-(4-(3-cyano-4-(ethylsulfonamido)phenyl)-1H-pyrrolo[2,3-b]pyridin-6-yl)cyclopropanecarboxamide] | < 6.70
